The source of these data is ChEMBL document CHEMBL1201862, “PubChem BioAssay data set” (2004).

Common to all, as to assay: DTP human tumour cell line panel, 48 h
The subject of test [1] is Malme-3M.
Test [2] has as its system OVCAR-5.
Test [3] relates to SF-268.
For test [4], the system named is SNB-75.
The test system of test [5] is SW-620.
Test [6] concerns SNB-19.
Test [7] relates to M14.
Test [8] relates to HOP-62.
In test [9] the test system is SK-MEL-28.
For test [10], the system named is HCC 2998.
The test system of test [11] is IGROV-1.
Test [12] has as its system SR.
The test system of test [13] is A549.
In test [14] the test system is SK-MEL-5.
Test [15] concerns CAKI-1.
Test [16] has as its system EKVX.
The subject of test [17] is RXF 393.
Test [18] concerns HT-29.
Test [19] concerns MDA-MB-231.
Test [20] has as its system T47D.

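Dose response: 5 concentrations. Exposure: 48 h. Format: 96-well plates. Endpoint: linear interpolation; highest concentration if not reached. Here, GI50 denotes the concentration required for 50% inhibition of growth.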 Active and inactive are the calls of the source. Rule as the data show it: active = GI50 up to about 1.1 µM and inactive = higher.

In general, GI50 refers to the concentration at which growth is held to half of that of the control. Turning to `N/C(=N\O)N/N=C/c1cccc(F)c1`, the GI50 in test [1] was 37.3 µM (inactive); in test [2], 33.7 µM (inactive); in test [3], 21.6 µM (inactive); in test [4] it was 52.6 µM (inactive); in test [5] it was 75.2 µM (inactive); in test [6], > 100 µM (inactive). The GI50 in [7] was 21.2 µM (inactive); in test [8], 26.9 µM (inactive); in test [9], > 100 µM (inactive); in test [10] it was 84.9 µM (inactive); in test [11], 47.9 µM (inactive); in [12] it was 21.9 µM (inactive). In addition, the GI50 in test [13] was 31.7 µM (inactive); in test [14], 14.8 µM (inactive); in [15] it was 27.7 µM (inactive); in test [16], 37.1 µM (inactive); in [17], 24.8 µM (inactive); in test [18] it was 30.4 µM (inactive).

On to `CC(=O)Oc1cc(-c2oc3cc(OC(C)=O)c(C4OC(CO)C(O)C(O)C4O)c(OC(C)=O)c3c(=O)c2O)c(OC(C)=O)cc1O` (stereo unspecified), for which the GI50 is > 100 µM (inactive) in test [1]; > 100 µM (inactive) in [2]; 60.4 µM (inactive) in test [4]; > 100 µM (inactive) in test [5]; > 100 µM (inactive) in [7]; > 100 µM (inactive) in [8]. The GI50 in test [10], in test [11], in test [13], in [14], in [15] and in test [16] was > 100 µM (inactive) throughout. Moreover, the GI50 in [17], in test [18] and in [19] was > 100 µM (inactive) throughout.

On to `CC1(C)CN=C(Nc2ccc(F)c(Cl)c2)S1`, for which the GI50 in test [1], in test [2], in test [3], in test [20], in test [4] and in test [5] was > 100 µM (inactive) in each case. Moreover, the GI50 in test [6], in test [7], in test [8], in test [9], in test [10] and in test [11] was > 100 µM (inactive) in each case. Further, the GI50 in [12], in test [13], in [14], in test [15], in test [16] and in [17] was > 100 µM (inactive) in each case. The GI50 in test [18] is > 100 µM (inactive).

As to `CCCn1c(SCC)c2ccccc2c1-c1nc(F)nc(F)n1`, the GI50 in test [1], in [2], in [3], in [5], in [6] and in [7] was > 100 µM (inactive) each time. Further, the GI50 in test [8], in test [9], in test [10], in [12], in test [13] and in test [15] was > 100 µM (inactive) in each case. In addition, the GI50 in test [16], in [17] and in test [18] was > 100 µM (inactive) throughout.

With `Nc1nc(O)c2nc(N)n(Cc3ccccc3)c2n1`, the GI50 in [1], in [2], in test [3], in test [4], in test [5] and in test [6] was > 100 µM (inactive) in each case. For the same compound, the GI50 in [7], in test [8], in [9], in test [10], in test [11] and in test [12] was > 100 µM (inactive) in each case. In addition, the GI50 in test [13], in test [14], in test [15], in test [16], in [17] and in [18] was > 100 µM (inactive) throughout.

With `Cc1ccc2nc(-c3ccccc3)c(N=O)n2c1`, the GI50 in test [1] is 29.5 µM (inactive); in test [2], 43.5 µM (inactive); in test [3] it was 69.2 µM (inactive); in [20] it was 71 µM (inactive); in test [4], 76.7 µM (inactive); in [5] it was 53.6 µM (inactive). Besides, the GI50 in test [6] was 96.4 µM (inactive); in test [7] it was 68.2 µM (inactive); in [8] it was 56 µM (inactive); in test [9] it was 45.9 µM (inactive); in test [11] it was 35.5 µM (inactive); in test [13] it was 32.7 µM (inactive). For the same compound, the GI50 in test [14] is 46.3 µM (inactive); in test [15], 37.1 µM (inactive); in test [16], 20.5 µM (inactive); in test [17], > 100 µM (inactive); in test [18], 48 µM (inactive); in test [19], 17.4 µM (inactive).

As to `CC(C)c1cccc(=O)c(O)c1`, the GI50 in test [1] is 1.35 µM (inactive); in test [2], 9.73 µM (inactive); in test [3], 1.38 µM (inactive); in test [4], 6.18 µM (inactive); in test [5], 1.79 µM (inactive); in [6] it was 7.24 µM (inactive). For the same compound, the GI50 was 2.03 µM (inactive) in test [7]; 5.3 µM (inactive) in [8]; 1.5 µM (inactive) in test [9]; 9.44 µM (inactive) in test [10]; 7.8 µM (inactive) in test [11]; 0.959 µM (active) in test [12]. Also, the GI50 in [13] was 2.83 µM (inactive); in [14], 2.1 µM (inactive); in [15] it was 1.64 µM (inactive); in test [16], 5.78 µM (inactive); in test [17] it was 0.299 µM (active); in [18], 3.07 µM (inactive).

With `NNC(=S)N/N=C/C(Cl)=C(\Cl)C(=O)O`, the GI50 in test [1], in test [2], in test [3], in [4], in test [5] and in [6] was > 100 µM (inactive) in each case. The GI50 in test [7], in test [9], in test [10], in test [11], in test [12] and in test [13] was > 100 µM (inactive) in each case. Further, the GI50 in [14], in [15], in [16], in [17] and in test [18] was > 100 µM (inactive) in each case.

For the compound `COC1OC(CBr)C(OC(=O)c2ccccc2)C(OS(=O)(=O)c2ccc(C)cc2)C1Br` (stereo unspecified), the GI50 in [1], in test [3], in [5], in test [6], in [7] and in [8] was > 100 µM (inactive) in each case. The GI50 is > 100 µM (inactive) in test [9]; > 100 µM (inactive) in [10]; > 10 µM (inactive) in test [11]; > 100 µM (inactive) in [12]; > 100 µM (inactive) in test [13]; > 100 µM (inactive) in test [15]. Also, the GI50 in test [16], in test [17] and in test [18] was > 100 µM (inactive) in each case.

In the case of `CN(C)CCC(=O)c1ccccc1`, the GI50 was 16.1 µM (inactive) in test [1]; > 43.7 µM (inactive) in test [2]; > 58.5 µM (inactive) in [3]; > 59.4 µM (inactive) in test [4]; 16.8 µM (inactive) in test [5]; > 100 µM (inactive) in test [6]. The GI50 is 32.4 µM (inactive) in test [7]; > 100 µM (inactive) in [8]; 41 µM (inactive) in [9]; > 58.1 µM (inactive) in test [10]; > 58.5 µM (inactive) in test [11]; 35.1 µM (inactive) in [12]. For the same compound, the GI50 is > 65.2 µM (inactive) in test [13]; > 43 µM (inactive) in test [14]; 18.9 µM (inactive) in [15]; > 55.6 µM (inactive) in test [16]; 38.3 µM (inactive) in test [17]; > 47.8 µM (inactive) in test [18].

In the case of `COC1C=CC(C(=O)[N+]2=Cc3[nH]c4ccccc4c3CC2)O1` (stereo unspecified), the GI50 in [1] was > 100 µM (inactive); in test [2], > 100 µM (inactive); in test [3], > 100 µM (inactive); in [4] it was 75.3 µM (inactive); in [5], > 100 µM (inactive); in test [6], > 100 µM (inactive). The GI50 was > 100 µM (inactive) in [7]; > 100 µM (inactive) in [8]; > 100 µM (inactive) in test [9]; 55.6 µM (inactive) in test [10]; > 100 µM (inactive) in test [11]; 30.5 µM (inactive) in test [12]. Besides, the GI50 is > 100 µM (inactive) in test [13]; > 100 µM (inactive) in [14]; > 100 µM (inactive) in test [15]; 88.5 µM (inactive) in [16]; 61.5 µM (inactive) in test [17]; > 100 µM (inactive) in test [18].

Regarding `Cc1[nH]c2ccccc2c1C1Cc2ccccc2N1C(=O)/C=C\C(=O)O` (stereo unspecified), the GI50 in test [1] is 73.3 µM (inactive); in test [2], > 100 µM (inactive); in [3], 36.3 µM (inactive); in [4], 24.3 µM (inactive); in test [5], 32.4 µM (inactive); in test [6] it was 23.3 µM (inactive). In addition, the GI50 was 57.7 µM (inactive) in test [7]; 31.3 µM (inactive) in test [8]; 45.6 µM (inactive) in test [10]; 58.1 µM (inactive) in test [11]; 29.6 µM (inactive) in [12]; > 100 µM (inactive) in test [13]. The GI50 in [14] was 22.6 µM (inactive); in test [15], 24.8 µM (inactive); in [16], 44.8 µM (inactive); in test [17], 30.9 µM (inactive); in test [18], 66.1 µM (inactive).
